In patent US11952364B2, “TRK inhibitors useful as anticancer drugs” (TYLIGAND BIOSCIENCE (SHANGHAI) LIMITED, priority 2018, dated 2024):
Like-named read-outs stand apart in the source and are kept apart here.

System: KM12 cells
Assay: Proliferation of KM12 cells (CellTiter-Glo)
Assay type: cell-based, human
Text: KM12 is a human colon cancer cell line in which NTRK1 is highly expressed, and gene fusion occurs with TPM3 to form TPM3-NTRK1. • [Test method]: Promega's CellTiter-Glo® Luminescent Cell Viability Assay kit was used to evaluate the inhibitory activity of the compounds on the proliferation of KM12 cells. • [Instrument]: Spectramax M3 multifunctional microplate reader from Molecular Devices. • [Test materials]: KM12 cell line (ATCC, item number CRL-12496), 96-well transparent flat-bottomed black-walled cell culture plate (Corning, item number #3603), RPMI-1640 media (GE, cat #SH30027.01), Fetal Bovine Serum FBS (Thermo Fisher, cat #10099-141), CellTiter-Glo® Luminescent Cell Viability Assay Kit (Promega, cat #G7572), PBS (Solarbio, cat #P1020), Trypsin (Thermo Fisher, cat #25200072), DMSO (Sigma, cat #D2650). • [Experimental procedure]: When resuscitating KM12 cells, the freezing tube was quickly shaken in a 37° C. water bath to melt within 1 minute. The thawed cell suspension was mixed uniformly with RPMI1640 medium containing 10% FBS, centrifuged at 1000 rpm for 5 minutes, and the supernatant discarded. 5 mL of complete medium (RPMI1640 medium with 10% FBS) was taken to resuspend the cell pellets, charged into a cell culture flask with a bottom area of 25 cm^2, and incubated in a cell incubator at 37° C., 95% humidity and 5% CO2. Cells were allowed to passage when the cell confluence rate reached about 80%. For cell passage, the old medium was discarded, and the cells were washed twice with PBS, and 0.5 mL trypsin was added to digest the cells. Upon dispersing into single cells and exfoliating from the bottom of the cell culture flask, 4.5 mL of new complete medium was added to terminate the digestion. After pipetting the cell suspension evenly, 1/5 of the cell suspension was kept and added with 4 mL of new complete medium, and after pipetting evenly, the cell flask was placed in the cell incubator for further culturing. Cell plating was performed when the cell confluence rate reached about 80% again. For cell plating, 1/5 of the cell suspension was kept for further culturing as in the cell passage method, and the remaining 4/5 of the cell suspension was placed in a 15 mL centrifuge tube, detected for cell viability by Trypan blue exclusion method to ensure that cell viability was above 90%. A cell suspension with a density of 3.33×10^4 viable cells/mL was prepared with complete medium, and 90 μL of such cell suspension was added to a 96-well cell culture plate to obtain a cell density of 3000 viable cells/mL in the cell culture plate. A control group containing no cells, no compound and only complete medium (i.e. culture medium control) and a control group containing no compound but containing cells (i.e. cell control) were set. The cell plate was placed in a cell incubator overnight.
The 10 mM compound stock solution in DMSO was first serially diluted with DMSO at a dilution factor of 3.16 times, to obtain 9 concentrations, and the 10th concentration was set as DMSO control without compound. Then, PBS was used to dilute the DMSO solutions of compounds of different concentrations, at a dilution factor of 100 times, so that the DMSO concentration in the compound solution of each concentration was 1%. Finally, 10 μL of each of the above solutions was added to the corresponding cell culture plate, so that the initial compound concentration was 10 μM, with the remaining concentrations being successively diluted at a dilution factor of 3.16 times, and the DMSO content in the cell culture plate was 0.1%.
The cell plate was placed in a cell incubator and cultured for 72 hours. For endpoint detection, the CellTiter-Glo reagent was melted, and the cell plate was moved to room temperature to equilibrate for 30 minutes, added with 100 μL of CellTiter-Glo for each well, and shaken on an orbital shaker for 5 minutes to fully lyse the cells. […]

[1] = Homo sapiens, KM12, 72 h, Table 1, 72 hours, read-out: KM-12, IC50
[2] = Homo sapiens, KM12, Table 1-1, separate test, read-out: KM-12, IC50
[3] = Homo sapiens, KM12, Table 1-2, separate test, read-out: KM-12, IC50

| SMILES | IC50 [1] [nM] | IC50 [2] [nM] | other results |
| --- | --- | --- | --- |
| CCOc1ccc(C(=O)Nc2ccc(Oc3cc4cnn(CC)c4cc3-c3cn[nH]c3)c(F)c2)c(=O)n1-c1ccc(F)cc1 [Example 24, N-(3-fluoro-4-(1-ethyl-6-(1H-pyrazol-4-yl)-1H-indazol-5-yloxy)phenyl)-1-(4-fluorophenyl)-6-ethoxy-2-oxo-12-dihydropyridine-3-carboxamide] | – | – | IC50 (Table 1-3, separate test, read-out: KM-12, IC50): 23 nM |
| Cc1ccc(C(=O)Nc2ccc(Oc3cc4cnn(C)c4cc3-c3cn[nH]c3)c(F)c2)c(=O)n1-c1ccc(F)cc1 [Merestinib, reference compound] | 8.7 | 33 | IC50 [3]: 59 nM; IC50 (Homo sapiens, KM12, Table 1-3, separate test, read-out: KM-12, IC50): 27 nM |
| CCn1ncc2cc(Oc3ccc(NC(=O)c4ccc(OC)n(-c5ccc(F)cc5)c4=O)cc3F)c(-c3cn[nH]c3)cc21 [Example 23, N-(3-fluoro-4-(1-ethyl-6-(1H-pyrazol-4-yl)-1H-indazol-5-yloxy)phenyl)-1-(4-fluorophenyl)-6-methoxy-2-oxo-1,2-dihydropyridine-3-carboxamide] | – | 32 | – |
| CSc1ccc(C(=O)Nc2ccc(Oc3cc4cnn(C)c4cc3-c3cn[nH]c3)c(F)c2)c(=O)n1-c1ccc(F)cc1 [Example 11, N-(3-fluoro-4-(1-methyl-6-(1H-pyrazol-4-yl)-1H-indazol-5-yloxy)phenyl)-1-(4-fluorophenyl)-6-methylthio-2-oxo-1,2-dihydropyidine-3-carboxamide] | – | – | IC50 [3]: 35 nM |
| CCn1ncc2cc(Oc3ccc(NC(=O)c4ccc(C5CC5)n(-c5ccc(F)cc5)c4=O)cc3F)c(-c3cn[nH]c3)cc21 [Example 19, N-(3-fluoro-4-(1-ethyl-6-(1H-pyrazol-4-yl)-1H-indazol-5-yloxy)phenyl)-1-(4-fluorophenyl)-6-cyclopropyl-2-oxo-1,2-dihydropyridine-3-carboxamide] | – | 32 | – |
| CCOc1ccc(C(=O)Nc2ccc(Oc3cc4cnn5c4c(c3-c3cn[nH]c3)CC5)c(F)c2)c(=O)n1-c1ccc(F)cc1 [Example 32, N-(4-((5-(1H-pyrazol-4-yl)-6,7-dihydropyrrolo[3,2,1-hi]-indazol-4-yl)oxy)-3-fluorophenyl)-6-ethoxy-1-(4-fluorophenyl)-2-oxo-12-dihydropyridine-3-carboxamide] | – | – | IC50 (Homo sapiens, KM12, Table 9, read-out: KM12 cell proliferation inhibitory activity (IC50)): 67 nM |
| Cc1ccc(C(=O)Nc2ccc(Oc3cc4cnn(C(C)C)c4cc3-c3cn[nH]c3)c(F)c2)c(=O)n1-c1ccc(F)cc1 [Example 4, N-(3-fluoro-4-(1-isopropyl-6-(1H-pyrazol-4-yl)-1H-indazol-5-yloxy)phenyl)-1-(4-fluorophenyl)-6-methyl-2-oxo-1,2-dihydmpyridine-3-carboxamide] | 31 | – | – |
| CCn1ncc2cc(Oc3ccc(NC(=O)c4ccc(C)n(-c5ccc(F)cc5)c4=O)cc3F)c(-c3cn[nH]c3)cc21 [Example 3, N-(3-fluoro-4-(1-ethyl-6-(1H-pyrazol-4-yl)-1H-indazol-5-yloxy)phenyl)-1-(4-fluorophenyl)-6-methyl-2-oxo-1,2-dihydmpyridine-3-carboxamide] | 16.7 | – | – |
| CCOc1ccc(C(=O)Nc2ccc(Oc3cc4cnn(C)c4cc3-c3cn[nH]c3)c(F)c2)c(=O)n1-c1ccc(F)cc1 [Example 14, N-(3-fluoro-4-(1-methyl-6-(1H-pyrazol-4-yl)-1H-indazol-5-yloxy)phenyl)-1-(4-fluorophenyl)-6-ethoxy-2-oxo-12-dihydropyridine-3-carboxamide] | – | – | IC50 [3]: 24 nM |
| CCc1ccc(C(=O)Nc2ccc(Oc3cc4cnn(CC)c4cc3-c3cn[nH]c3)c(F)c2)c(=O)n1-c1ccc(F)cc1 [Example 18, N-(3-fluoro-4-(1-ethyl-6-(1H-pyrazol-4-yl)-1H-indazol-5-yloxy)phenyl)-1-(4-fluorophenyl)-6-ethyl-2-oxo-1,2-dihydropyridine-3-carboxamide] | – | 32 | – |
| CCc1ccc(C(=O)Nc2ccc(Oc3cc4cnn(C)c4cc3-c3cn[nH]c3)c(F)c2)c(=O)n1-c1ccc(F)cc1 [Example 5, N-(3-fluoro-4-(1-methyl-6-(1H-pyrazol-4-yl)-1H-indazol-5-yloxy)phenyl)-1-(4-fluorophenyl)-6-ethyl-2-oxo-1,2-dihydropyridine-3-carboxamide] | 5.1 | – | – |
